In brackets after ≈: the same amount, converted by molar mass.
Assays:
[1] = mouse, in vivo
Procedure: Briefly, the mouse bodyweight of all groups was recorded throughout the treatment period. To evaluate systemic safety, after the termination of treatment, the tissues of the heart, liver, spleen, lung, and kidney were collected to calculate organ indexes [mass of the organ (mg)/bodyweight (g)] and to stain for H&E. In addition, orbital blood was sampled for a routine blood test, hepatic function test and renal function test, including RBC, WBC, ALT, and Cr.

A375 cells [2] = test: Transwell invasion assay; assay type: cell-based, human; settings: A375 cells pretreated 6 h, Transwell with Matrigel 24 h
Procedure: Then, the differently treated cells were incubated in the apical Transwell insert (24-well plant covered with Matrigel polycarbonate membranes, pore size 8 μm). Meanwhile, 800 μL of DMEM with 10% FBS used for cell chemotaxis was added to the basolateral champers. After incubation for 24 h, the cells on the top side of the apical chamber were wiped, and then the migrated cells were fixed with 4% paraformaldehyde and stained with 0.1% crystal violet. After that, five random fields under an inverted microscope were visualized, and the migrated cells were counted by ImageJ software.

A375 cells [3] = test: Cell cycle assay (PI staining); assay type: cell-based, human; settings: 24 h
Procedure: The cell cycle assay was carried out to explore the correlation between mitosis and cytotoxicity. […] The treated cells were then fixed with 70% ethanol for 12 h, washed with PBS 3 times, and stained with propidium iodide/RNase A for 30 min. After that, the red fluorescence of differently treated cells was recorded at 488 nm, and the DNA content of cells was also analyzed.

A375 cells [4] = test: Cell apoptosis assay (Annexin V-APC/7-AAD flow cytometry); settings: 24 h
Procedure: Then, the cells were trypsinized by pancreatic enzymes without DMSO and resuspended in 500 μL 1× Binding Buffer. The cell suspension was stationarily cultured at room temperature for 15 min in the dark after adding 7-AAD and Annexin V-APC. Subsequently, cell apoptosis and necrosis were detected with a flow cytometer.

A375 cells [5] = test: CCK-8 cytotoxicity assay; assay type: cell-based; settings: Homo sapiens, A-375, 24 h
Procedure: A375 cells were incubated with different concentrations of TP for 24 h. After that, 10 μL of CCK-8 was added to the treated cells and incubated for another 20 min. The absorbance was detected using a microplate reader.

[6] = Plasma pharmacokinetics in tumor-bearing mice; settings: nude, mouse, in vivo, iv, 600 ug/kg
Procedure: The TP concentrations in blood, heart, liver, spleen, lung, kidney, and tumor tissues were also quantified over time. […] The preparations were injected intravenously at drug-equivalent doses of 600 μg/kg TP. After injection, blood was sampled from the orbital vein at 5 min, 10 min, 15 min, 30 min, 1 h, 2 h, 4 h, 6 h, and 24 h. In addition, heart, liver, spleen, lung, kidney, and tumor tissues were collected at 5 min, 30 min, 1 h, 2 h, 4 h, 6 h, and 24 h. Nine mice were sacrificed at each time point (n = 3), whereas at 10 min and 15 min, the mice were only taken for blood and were not killed. The TP concentration in plasma and tissue homogenate was analyzed with UHPLC-MS/MS.
TP concentrations in cells, plasma, primary organs, and tumors were analyzed using UHPLC-MS/MS (Thermo Fisher Scientific, CA, USA). The separation was performed on an ACQUITY UPLCTM BEH C18 column (2.1 × 100 mm, i.d., 1.7 μm). The column temperature was maintained at 40 °C. The mobile phases were 1% acetic acid aqueous solution (A) and methanol (B). Isocratic elution with 40% A and 60% B was adopted at a flow rate of […]. The temperature and flow rate of dry gas (N2) were 350 °C and 8 L/min, respectively. The pressure of the nebulizer gas (N2) was 40 psi. The capillary voltage was […]. The positive multiple reaction monitoring (MRM) mode was adopted to determine TP and carbamazepine (internal standard, IS). The collision energy was 33 eV for both TP and IS. The precursor-to-product transitions were m/z 361.1 → 105.2 for TP and m/z 237.1 → 194.0 for IS.

[7] = In vivo antitumor efficacy in A375 xenograft tumor model; settings: tumor-bearing mice, Kaplan–Meier; control 25.5 days
malignant melanoma = test system: malignant melanoma; design: method as in PMID 31564801; settings: chemotherapeutic drug for MM; cited from earlier work

SMILES | ALT (alanine aminotransferase) [1] | Cr (creatinine) [1] | H&E staining of normal tissues [1] | RBC (red blood cell) [1] | WBC (white blood cell) [1] | mice bodyweight during the treatment period [1] | organ indexes versus control [1] | invasion inhibition rate (A375 cells [2]) | cell population of the S phase (A375 cells [3]; control 8.07 ± 0.39%) | cell population of the G0/G1 phase (A375 cells [3]; control 88.91 ± 0.81%) | apoptosis and necrosis (mortal cells) (A375 cells [4]) | IC50 (A375 cells [5]) | AUC(0-inf) [6] | Cmax [6] | MRT [6] | clearance [6] | half-life [6] | mean survival time [7] | total effective rate (malignant melanoma)
CC(C)[C@]12O[C@H]1[C@@H]1O[C@]13[C@]1(O[C@H]1C[C@H]1C4=C(CC[C@@]13C)C(=O)OC4)[C@@H]2O [TP, triptolide] | 76.25 ± 4.03 U/L | 27.76 ± 1.52 µmol/L | heart, liver, and kidney were damaged | 8.11 ± 0.65 × 10^12/L | 6.73 ± 0.51 × 10^9/L | suffered a bodyweight loss | significantly lower than those of the control mice | 45.54 ± 6.35% | 17.73 ± 0.79% | 72.87 ± 3.71% | 22.10 ± 1.66% | 0.0696 µg/mL (≈ 0.193 µM) | 1400 ± 81.4 ng·h/mL | 612 ± 100 ng/mL | 3.6 ± 1.8 min | 36.6 mL/min/kg | 18.6 ± 3.6 min | 29.5 days | –
CN(C)/N=N/c1[nH]cnc1C(N)=O [dacarbazine] | – | – | – | – | – | – | – | – | – | – | – | – | – | – | – | – | – | – | 10–15%
